We go through one compound from ChEMBL document CHEMBL3832035, “DailyMed|setid=5c133dfe-3cb5-426b-ac30-daf814e12c47 | FAMCICLOVIR - famciclovir tablet, film coated|Golden State Medical Supply, Inc”.

The data set has as its system Homo sapiens. The experiment in a line: Mean pharmacokinetic parameters for Penciclovir following single dose oral or IV administration of […] to healthy adult subjects and patients with different degrees of renal impairment. Format: ADME, organism-based. On the set-up: dose 1000 mg, dose 250 mg, dose 125 mg, dose 500 mg, route oral. Particulars: in vivo, regimen Single dose; for Excretion: tissue Urine.

The mark [1] stands for this setting: iv, dosed compound id 4, dosed compound name PENCICLOVIR, gender male, tissue Plasma.
Setting [2] is: po, dose 500 mg, dosed compound id 40, dosed compound name FAMCICLOVIR, gender male, tissue Plasma.

“And” between values parts separate entries of the source, which are not always exact repeats. Identical values can stand only once.

On to `Nc1nc2c(ncn2CCC(CO)CO)c(=O)[nH]1` [PENCICLOVIR], for which the Excretion runs as follows: (iv, 5 mg/kg, dosed compound id 4, dosed compound name PENCICLOVIR, gender male, study dosing duration 24 hours) 91%; (po, at 500 mg, dosed compound id 40, dosed compound name FAMCICLOVIR, gender male, study dosing duration 72 hours) 82%. The compound also came in with a F (iv, at 400 mg, dosed compound id 4, dosed compound name PENCICLOVIR, gender male, route oral, tissue Plasma) of 77%. The Vd_beta (iv, dose 400 mg, dosed compound id 4, dosed compound name PENCICLOVIR, gender male, tissue Plasma) was determined as 1.08 L/kg. The compound also registered a CL under setting [1] of 36.6 L/h. The t1/2 runs as follows: under setting [1], 2 h; under setting [2], 2.3 h. Also, the CL_renal by setting is: (po, dose 500 mg, dosed compound id 40, dosed compound name FAMCICLOVIR, gender female, tissue Plasma) 21.8 L/h; under setting [2], 28.5 L/h and 27.7 L/h. For the same compound, the Tmax under setting [2] amounted to 0.9 h. Further, the AUC came out at 11100 ng·h/mL (po, dosed compound id 40, dosed compound name FAMCICLOVIR, gender female, tissue Plasma) and 9300 ng·h/mL (po, dosed compound id 40, dosed compound name FAMCICLOVIR, gender male, tissue Plasma).

What is called Tmax is the time from dosing to the highest level. Usually AUC stands for concentration integrated over time. A lower AUC goes with low exposure.
